Test: in vitro
Conditions: human, hela cells, % viability

| SMILES | viability at 28.5 h, 10 µM [%] |
| --- | --- |
| Cc1nc2c(c(=O)[nH]1)CN(C(=O)Cc1c(F)cccc1Cl)CC2 [CBK283589] | 92.1 |
| Cc1ccccc1CN1CC[C@H]2[C@@H](C1)[C@H](c1ccsc1)CN2C(=O)c1ccc(F)cc1 [CBK285638] | 102 |
| O=C1CCCN1CP(=O)(O)CN1CCCCC1 [CBK262302] | 85.6 |
| Cc1noc(CN2CCN(CCc3ccc4c(c3)CCO4)CC2)n1 [CBK305208] | 102 |
| Cc1ccc(NC(=O)c2cc(N3C(=O)c4ccc(C(=O)O)cc4C3=O)ccc2N2CCCCC2)cc1 [CBK265274] | 99.9 |
| Cc1ccc(Nc2nc(N)nc(CN3CCN(Cc4ccc5c(c4)OCO5)CC3)n2)cc1 [CBK268985] | 96.1 |
| O=C(NC1CC2(CCOCC2)Oc2ccccc21)c1ccco1 (stereo not drawn) [CBK285378] | 98 |
| CN1CCN(c2nc(-c3ccccc3CO)cn3ccnc23)CC1 [CBK066347] | 87.1 |
| Cc1nc(C)c(C(=O)NC(Cc2ccsc2)c2nccs2)s1 (stereo not drawn) [CBK282822] | 82.3 |
| Clc1cccc(-c2cncc(NCC3CCOCC3)n2)c1 [CBK037237] | 103 |
| COCCCn1c(C)c(C)n2c3c(=O)n(CCN4CCCCC4)c(=O)n(C)c3nc12 [CBK269762] | 102 |
| Cc1ccc(SCCCNCCN(C)C)cc1 [CBK267807C] | 92.2 |
| CC(C)c1ccc2oc(-c3ccc(NC(=S)NC(=O)c4cncc(Br)c4)cc3)nc2c1 [CBK264913] | 106 |
| Cc1cc(NC(=O)N2CCN(CCNC(=O)C3CCCC3)CC2)no1 [CBK305064] | 100 |
| Cc1cc(OCC(=O)Nc2nn(Cc3ccccc3Cl)cc2Cl)ccc1[N+](=O)[O-] [CBK268113] | 100 |
| O=C(O)Cn1c(=O)n(CC(=O)O)c2ccccc21 [CBK263550] | 83 |
| O=C1CSC(c2cccnc2)N1CCc1ccccn1 (stereo not drawn) [CBK017292] | 96.7 |
| Cc1cc2ccccc2n2c(SCC(=O)Nc3nsc(-c4ccccc4)n3)nnc12 [CBK265673] | 116 |
| CSCCN(C)C(=O)c1nnn(Cc2ccc(F)cc2F)c1C [CBK306468] | 93.2 |
| O=C(O)CCC(=O)N[C@H]1CCN2C(=O)c3cc(-c4ccc(Cl)cc4)ccc3NC(=O)[C@H]12 [CBK289275] | 115 |
| Cc1cc2c(cc3c(=O)n(CC(=O)NCC4CC4)nc(C)n32)s1 [CBK284097] | 96.6 |
| COc1cc(NC(=O)N2CCN(c3cc(C(F)(F)F)ccn3)CC2)cc(OC)c1OC [CBK162349] | 95.2 |
| Cn1c(N2CC[C@H](O)C2)nc2cc(C(=O)NCCC3CCCC3)ccc21 [CBK307447] | 87.9 |

| SMILES | viability at 28.5 h, 10 µM [%] |
| --- | --- |
| COc1cnc(C(=O)NCCc2ccc(S(=O)(=O)NC(=O)NC3CCCCC3)cc2)cn1 [CBK011761] | 104 |
| O=S(=O)(Nc1ncccn1)c1ccc(NC(=S)Nc2ccc3c(c2)OCO3)cc1 [CBK267046] | 89 |
| COCc1cccc(-c2nccnc2OC)c1 [CBK106956] | 95.2 |
| Cc1nn2c(C3CCCNC3)ccnc2c1-c1ccc(F)cc1 (stereo not drawn) [CBK284139] | 78.8 |
| O=C(CCn1cnc2ccccc21)N1CC[C@@H](c2ccccc2)[C@H](O)C1 [CBK283712] | 102 |
| COC1CCCC(C(=O)N2CCC(c3onc4c3CCC4)CC2)C1 (stereo not drawn) [CBK285519] | 103 |
| COc1cccc(C(NC(=O)c2cc(CN3CCOCC3)c(C)o2)c2ccccc2)c1 (stereo not drawn) [CBK286279] | 93.4 |
| Nc1nn2c(c1Cc1c(Cl)cccc1Cl)OCCC2 [CBK088843] | 92.8 |
| CCNC(=O)Nc1ccc(-c2ccc3c(c2)OCCCO3)c2ccccc12 [CBK083726] | 89.4 |
| CCC(CO)Nc1cncc(-c2ccc3c(c2)OCO3)n1 (stereo not drawn) [CBK065970] | 98.4 |
| CCCC(=O)Nc1nnc(-c2ccc(C)cc2C)o1 [CBK287700] | 107 |
| CN1CCc2c(sc3c2C(=O)NC(/C=C\c2ccc([N+](=O)[O-])cc2)N3)C1 (stereo not drawn) [CBK262909] | 86.3 |
| COc1cc(C(=O)N2CCC(n3c(=O)[nH]c4c(C)cccc43)CC2)ccc1C [CBK155372] | 94.2 |
| CC(C)(O)Cc1ccccc1C(=O)NC1CCCCCC1 [CBK010502] | 81.7 |
| O=C(NCCn1cc[nH]c1=O)c1cnc(-c2ccc(Cl)cc2)c(-c2ccc(O)cc2)c1 [CBK036766] | 92 |
| COCC(=O)N1CCN2C(=O)[C@@H]3C[C@@H](OCc4ccc(F)cc4)CN3C(=O)[C@@H]2C1 [CBK289605] | 99.1 |
| CC1CN(C(=O)Nc2ccccc2F)CC(C)O1 (stereo not drawn) [CBK004990] | 89.9 |
| Cc1ccc2nc(-c3ccccn3)cc(C(=O)NCc3ccccn3)c2c1 [CBK267782] | 86.6 |
| CCn1ncc(CN(CCN(C)C)Cc2cccs2)c1C [CBK282958] | 107 |
| Cc1cc(C)c2c(OCC(=O)N(C)CC(=O)NC(C)C)nn(C)c2n1 [CBK304931] | 84.1 |
| Cc1cc(N(C)C)cc(C2CCCN(C(=O)c3cccc(F)c3)C2)n1 (stereo not drawn) [CBK282003] | 95.1 |
| CCC(NC(=O)CCc1cccnc1)c1cn2cccnc2n1 (stereo not drawn) [CBK307247] | 81.7 |

Source: PMC12040169 (PLOS Biology, 2025)
